Where two headings read alike, the source gives them in different places.
Tests used:
[1] = PK / tissue distribution in Sprague-Dawley rats; assay type: in vivo; details: female, rat; for Cmax: PO, 5 mg/kg; for clearance: IV 1 mg/kg, read-out: CL post IV Dosing @1 mg/kg; for half-life: PO 5 mg/kg, read-out: T1/2 post PO Dosing @5 mg/kg (converted)
Experimental: Tissue distribution study of the compounds disclosed herein were conducted in SD rats and mice to assess their liver-targeting properties. The compounds disclosed herein were orally administered to SD rats and mice, and the concentration of the compound and its metabolites were tested in plasma and liver at different time points.
The pharmacokinetics of the compounds disclosed herein were evaluated in female Sprague-Dawley rats after administration via oral gavage and intravenous bolus (IV) injection. The test compound was dissolved in 0.5% methylcellulose for oral gavage and in 30% HP-β-CD for IV injection. The animals used for oral administration were fasted overnight prior to dosing and fed normal daily feed at 4 hours post-dose, but the animals used for IV dosing had free access to food during the study. Plasma samples were collected at pre-dose, 0.033 (IV only), 0.083, 0.25, 0.5, 1, 2, 4, 7 and 24 hours post-dose. Liver samples were collected at 1, 3 and 6 hours post-dose. The samples were analyzed by LC/MS/MS and the concentrations of test compound and its metabolites at each time point were determined. Pharmacokinetic parameters were calculated from the plasma concentrations using Pheonix WinNonlin.
Particularly, preferable compounds have a ratio for liver concentration to plasma concentration of greater than 2, more preferable compounds have a ratio for liver concentration to plasma concentration of greater than 5, and most preferable compounds have a ratio for liver concentration to plasma concentration of greater than 10. The PK properties and tissue exposure of representative compounds and control compound ADPS-Heptose in Rats are given below.

ALPK1 [2] = target: T1, ALPK1 (Homo sapiens, UniProt Q96QP1); experiment: NF-κB luciferase reporter assay in 293T cells (cellular assay); assay type: cell-based
T1 construct: endogenous in cells; host or cells: 293T cells
Experimental: The compounds disclosed herein activate NF-κB through ALPK1-TIFA axis as determined by the NF-κB luciferase reporter and TIFA phosphorylation. For NF-κB luciferase assay, the plasmids (pNL2.2-BII-5RE-Luc), and control vector (pRL-TK) were transfected into 293T cells with the Jetprime reagents (Polyplus). NF-κB luciferase activity was determined using the dual luciferase assay kit (Promega) according to the manufacturer's instructions. TIFA phosphorylation upon the treatment with the compounds disclosed herein described in Table 1, were assayed with immunoblotting. Briefly, for the immunoblotting assay, the 293T cells were seeded in 12-well-plates and cultured for 16 h, and treated with indicated compounds for another 2 hours. Subsequently, the cells were collected and sampled as the regular western-blotting method, immunoblotted by the TIFA phosphorylation specific antibody (ab214815, Abcam).
The EC50 of the compounds disclosed herein were determined by the NF-κB luciferase reporter assay using 293T cells described supra. Compounds with indicated concentrations were added to the culture medium of 293T and the NF-κB luciferase activity was determined using the dual luciferase assay kit (Promega) according to the manufacturer's instructions. […] These chemical entities induce strong activation of the immune regulator NF-κB.

ALPK1 [3] = target: T1, ALPK1; experiment: Enzymatic assay of ALPK1 activation; assay type: biochemical
[4] = plasma, read-out: Cmax in Plasma

T1 sequence (Q96QP1 whole entry): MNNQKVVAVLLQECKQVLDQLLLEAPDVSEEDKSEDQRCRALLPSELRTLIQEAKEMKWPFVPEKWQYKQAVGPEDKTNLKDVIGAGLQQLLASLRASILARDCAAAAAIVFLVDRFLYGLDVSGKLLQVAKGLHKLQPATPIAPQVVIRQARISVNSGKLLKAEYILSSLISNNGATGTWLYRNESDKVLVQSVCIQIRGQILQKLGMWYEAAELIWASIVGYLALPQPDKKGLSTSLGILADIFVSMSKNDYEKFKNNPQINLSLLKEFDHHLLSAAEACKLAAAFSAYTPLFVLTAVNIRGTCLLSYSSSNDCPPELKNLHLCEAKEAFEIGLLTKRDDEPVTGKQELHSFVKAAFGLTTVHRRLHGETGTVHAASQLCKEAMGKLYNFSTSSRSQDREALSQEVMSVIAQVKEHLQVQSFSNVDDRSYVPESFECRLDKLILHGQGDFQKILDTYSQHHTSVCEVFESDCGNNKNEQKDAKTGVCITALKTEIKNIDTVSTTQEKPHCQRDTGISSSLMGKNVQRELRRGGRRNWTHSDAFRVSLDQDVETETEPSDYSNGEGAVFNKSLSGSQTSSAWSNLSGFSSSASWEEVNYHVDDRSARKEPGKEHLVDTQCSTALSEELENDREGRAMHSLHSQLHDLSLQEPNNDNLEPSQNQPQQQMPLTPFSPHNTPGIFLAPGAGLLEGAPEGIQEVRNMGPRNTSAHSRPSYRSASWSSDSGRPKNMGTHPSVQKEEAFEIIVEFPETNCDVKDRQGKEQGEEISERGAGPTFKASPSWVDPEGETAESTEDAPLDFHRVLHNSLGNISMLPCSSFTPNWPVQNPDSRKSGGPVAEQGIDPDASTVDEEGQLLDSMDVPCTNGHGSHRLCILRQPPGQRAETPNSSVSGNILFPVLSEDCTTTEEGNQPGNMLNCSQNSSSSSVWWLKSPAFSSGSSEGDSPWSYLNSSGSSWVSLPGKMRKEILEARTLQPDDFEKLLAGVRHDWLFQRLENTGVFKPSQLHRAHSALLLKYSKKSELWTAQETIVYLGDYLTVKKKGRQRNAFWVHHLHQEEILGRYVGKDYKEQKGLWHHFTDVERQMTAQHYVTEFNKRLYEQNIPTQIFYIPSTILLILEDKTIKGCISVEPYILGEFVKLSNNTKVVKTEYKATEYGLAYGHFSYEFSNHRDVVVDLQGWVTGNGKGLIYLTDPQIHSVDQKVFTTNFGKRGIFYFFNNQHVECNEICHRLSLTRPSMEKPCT

| Compound | Cmax ([1]; liver, read-out: Cmax in Liver) [ng/g] | Cmax [1, 4] [ng/mL] | clearance ([1]; plasma) [mL/min/kg] | half-life ([1]; plasma) [min] | EC50 (ALPK1 [2]) [µM] | EC50 (ALPK1 [3]) [µM] |
| --- | --- | --- | --- | --- | --- | --- |
| C=C[C@@]1(F)[C@H](O)[C@@H](COP(=O)(S)OP(=O)(O)OC2OC([C@H](COC(C)=O)OC(C)=O)C(OC(C)=O)C(OC(C)=O)C2OC(C)=O)O[C@H]1n1ccc(=O)[nH]c1=O (stereo partly drawn) [Example 42C] | 31.7 | 2.4 | 18.6 | 37.8 | 0.00757 |  |
| C=C[C@@]1(O)[C@H](O)[C@@H](COP(=O)(S)OP(=O)(O)OC2OC([C@@H](O)CO)C(O)C(O)C2O)O[C@H]1n1ccc(=O)[nH]c1=O (stereo partly drawn) [Example 43D] |  |  |  |  | 0.0183 | 0.048 |
| C#C[C@@]1(O)[C@H](O)[C@@H](COP(=O)(S)OP(=O)(O)OC2OC([C@@H](O)CO)C(O)C(O)C2O)O[C@H]1n1cnc2c(N)ncnc21 (stereo partly drawn) [Example 25D] |  |  |  |  | 0.00841 | 0.017 |
| C=C[C@@]1(F)[C@H](O)[C@@H](COP(=O)(S)OP(=O)(O)OC2OC([C@@H](O)CO)C(O)C(O)C2O)O[C@H]1n1ccc(=O)[nH]c1=O (stereo partly drawn) [Example 42D] |  |  |  |  | 0.014 | 0.011 |
| C=C[C@@]1(F)[C@H](O)[C@@H](COP(=O)(S)OP(=O)(O)OC2OC([C@@H](O)CO)C(O)C(O)C2O)O[C@H]1n1cnc2c(N)ncnc21 (single isomer, unassigned) [Example 41D] |  |  |  |  | 0.00571 | 0.0041 |
| C=C[C@@]1(O)[C@H](O)[C@@H](CO[P@@](=O)(S)OP(=O)(O)OC2OC([C@@H](O)CO)C(O)C(O)C2O)O[C@H]1n1cnc2c(N)ncnc21 (single isomer, unassigned) [Example 31R] |  |  |  |  | 0.0136 | 0.012 |
| C#C[C@@]1(F)[C@H](O)[C@@H](COP(=O)(S)OP(=O)(O)OC2OC([C@@H](O)CO)C(O)C(O)C2O)O[C@H]1n1ccc(=O)[nH]c1=O (stereo partly drawn) [Example 22D] |  |  |  |  | 0.00566 | 0.064 |
| C=C[C@@]1(O)[C@H](O)[C@@H](COP(=O)(S)OP(=O)(O)OC2OC([C@@H](O)CO)C(O)C(O)C2O)O[C@H]1n1cnc2c(N)ncnc21 (stereo partly drawn) [Example 31D] |  |  |  |  | 0.016 | 0.024 |
| CC(=O)OC[C@H](OC(C)=O)C1OC(OP(=O)(O)OP(=O)(S)OC[C@H]2O[C@@H](n3cnc4c(N)ncnc43)[C@H](N(C)C)[C@@H]2O)C(OC(C)=O)C(OC(C)=O)C1OC(C)=O (stereo partly drawn) [Example 35C] | 1330 | 75.5 | 7.67 | 27 | 0.0189 |  |
| C=C[C@@]1(O)[C@H](O)[C@@H](COP(=O)(S)OP(=O)(O)OC2OC([C@H](COC(C)=O)OC(C)=O)C(OC(C)=O)C(OC(C)=O)C2OC(C)=O)O[C@H]1c1cnc2c(N)ncnn12 (stereo partly drawn) [Example 127C] | 48.5 | 0.4 | 17.6 | 38.4 | 0.00294 |  |
| C#C[C@@]1(F)[C@H](O)[C@@H](COP(=O)(S)OP(=O)(O)OC2OC([C@@H](O)CO)C(O)C(O)C2O)O[C@H]1n1cnc2c(N)ncnc21 (stereo partly drawn) [Example 21D] |  |  |  |  | 0.00408 | 0.026 |
| C=C[C@@]1(O)[C@H](O)[C@@H](CO[P@](=O)(S)OP(=O)(O)OC2OC([C@@H](O)CO)C(O)C(O)C2O)O[C@H]1n1cnc2c(N)ncnc21 (single isomer, unassigned) [Example 31Q] |  |  |  |  | 0.00701 | 0.011 |
| CN(C)[C@@H]1[C@H](O)[C@@H](COP(=O)(S)OP(=O)(O)OC2OC([C@@H](O)CO)C(O)C(O)C2O)O[C@H]1n1cnc2c(N)ncnc21 (stereo partly drawn) [Example 35D] |  |  |  |  | 0.0387 |  |
| C=C[C@@]1(F)[C@H](O)[C@@H](COP(=O)(S)OP(=O)(O)OC2OC([C@H](COC(C)=O)OC(C)=O)C(OC(C)=O)C(OC(C)=O)C2OC(C)=O)O[C@H]1n1cnc2c(N)ncnc21 (stereo partly drawn) [Example 41C] | 18.7 | < 1 | 9.76 | 51 | 0.00831 |  |
| C=C[C@@]1(O)[C@H](O)[C@@H](COP(=O)(S)OP(=O)(O)OC2OC([C@H](COC(C)=O)OC(C)=O)C(OC(C)=O)C(OC(C)=O)C2OC(C)=O)O[C@H]1n1cnc2c(N)ncnc21 (stereo partly drawn) [Example 31C] | 30.5 | < 1 | 14.6 | 104 | 0.0169 |  |
| CC(=O)OC[C@H](F)C1OC(OP(=O)(O)O[P@@](=O)(S)OC[C@H]2O[C@@H](n3cnc4c(N)ncnc43)[C@H](N(C)C)[C@@H]2O)C(OC(C)=O)C(OC(C)=O)C1OC(C)=O (stereo partly drawn) [Example 35K] |  |  |  |  | 0.0342 |  |
| CC(=O)OC[C@H](OC(C)=O)C1OC(OP(=O)(O)OP(=O)(S)OC[C@H]2O[C@@H](n3cnc4c(N)ncnc43)[C@H](N3CCC3)[C@@H]2O)C(OC(C)=O)C(OC(C)=O)C1OC(C)=O (stereo partly drawn) [Example 36C] |  |  |  |  | 1.62 |  |
| C=C=C[C@@]1(O)[C@H](O)[C@@H](COP(=O)(S)OP(=O)(O)OC2OC([C@H](COC(C)=O)OC(C)=O)C(OC(C)=O)C(OC(C)=O)C2OC(C)=O)O[C@H]1n1ccc(=O)[nH]c1=O (stereo partly drawn) [Example 98C] |  |  |  |  | 2.31 |  |
| C=C[C@@]1(O)[C@H](O)[C@@H](COP(=O)(S)OP(=O)(O)OC2OC([C@H](COC(C)=O)OC(C)=O)C(OC(C)=O)C(OC(C)=O)C2OC(C)=O)O[C@H]1n1ccc(=O)[nH]c1=O (stereo partly drawn) [Example 43C] | 22.4 | < 1 | 8.25 | 140 | 0.0207 |  |
| C=C[C@@]1(O)[C@H](O)[C@@H](COP(=O)(S)OP(=O)(O)OC2OC([C@H](COC(C)=O)OC(C)=O)C(OC(C)=O)C(OC(C)=O)C2OC(C)=O)O[C@H]1c1coc2c(N)ncnc12 (stereo partly drawn) [Example 125C] |  |  |  |  | 0.00289 |  |
| C#C[C@@]1(O)[C@H](O)[C@@H](COP(=O)(S)OP(=O)(O)OC2OC([C@H](COC(C)=O)OC(C)=O)C(OC(C)=O)C(OC(C)=O)C2OC(C)=O)O[C@H]1n1cnc2c(N)ncnc21 (stereo partly drawn) [Example 25C] |  |  |  |  | 0.02 |  |

Reference: patent US20250034197A1, “NUCLEOSIDE-DIPHOSPHATE-HEPTOSE COMPOUNDS FOR TREATING CONDITIONS ASSOCIATED WITH ALPK1 ACTIVITY” (PYROTECH (BEIJING) BIOTECHNOLOGY CO., LTD., priority 2021, published 2025)
